Measured values published in ChEMBL document CHEMBL4680298, “2-Aryl-3-(6-trifluoromethoxy)benzo[d]thiazole-based thiazolidinone hybrids as potential anti-infective agents: Synthesis, biological evaluation and molecular docking studies” (2021).
In brackets after ≈: the same amount, converted by molar mass.

Legend:
Pseudomonas aeruginosa [1] = experiment: Anti-infective activity against Pseudomonas aeruginosa ATCC 27853 assessed as reduction in bacterial growth by microdilution method; type: functional
Listeria monocytogenes = experiment: Anti-infective activity against Listeria monocytogenes NCTC 7973 assessed as reduction in bacterial growth by microdilution method; type: functional
Pseudomonas aeruginosa [2] = experiment: Anti-infective activity against Pseudomonas aeruginosa PAO1 assessed as reduction in bacterial growth by microdilution method; type: functional
Escherichia coli [3] = experiment: Anti-infective activity against Escherichia coli ATCC 35210 assessed as reduction in bacterial growth by microdilution method; type: functional
Escherichia coli [4] = experiment: Anti-infective activity against resistant Escherichia coli assessed as reduction in bacterial growth by microdilution method; type: functional
Salmonella typhimurium = experiment: Anti-infective activity against Salmonella typhimurium ATCC 13311 assessed as reduction in bacterial growth by microdilution method; type: functional, Salmonella enterica subsp. enterica serovar Typhimurium; details: Salmonella enterica
Staphylococcus aureus [5] = experiment: Anti-infective activity against methicillin resistance Staphylococcus aureus assessed as reduction in bacterial growth by microdilution method; type: functional
Staphylococcus aureus [6] = experiment: Anti-infective activity against Staphylococcus aureus ATCC 6538 assessed as reduction in bacterial growth by microdilution method; type: functional

| Compound | MBC (Pseudomonas aeruginosa [1]) [µg/mL] | MIC (Pseudomonas aeruginosa [1]) [µg/mL] | MBC (Listeria monocytogenes) [µg/mL] | MIC (Listeria monocytogenes) [µg/mL] | MBC (Pseudomonas aeruginosa [2]) [µg/mL] | MIC (Pseudomonas aeruginosa [2]) [µg/mL] | MBC (Escherichia coli [3]) [µg/mL] | MIC (Escherichia coli [3]) [µg/mL] | MBC (Escherichia coli [4]) [µg/mL] | MIC (Escherichia coli [4]) [µg/mL] | MBC (Salmonella typhimurium) [µg/mL] | MIC (Salmonella typhimurium) [µg/mL] | MBC (Staphylococcus aureus [5]) [µg/mL] | MIC (Staphylococcus aureus [5]) [µg/mL] | MBC (Staphylococcus aureus [6]) [µg/mL] | MIC (Staphylococcus aureus [6]) [µg/mL] |
| --- | --- | --- | --- | --- | --- | --- | --- | --- | --- | --- | --- | --- | --- | --- | --- | --- |
| O=C1CSC(c2c(F)cccc2F)N1c1nc2ccc(OC(F)(F)F)cc2s1 (racemic) | 500 (≈ 1160 µM) | 250 (≈ 578 µM) | > 1000 | > 1000 | 500 (≈ 1160 µM) | 300 (≈ 694 µM) | 250 (≈ 578 µM) | 120 (≈ 278 µM) | 500 (≈ 1160 µM) | 250 (≈ 578 µM) | 250 (≈ 578 µM) | 120 (≈ 278 µM) | 1000 (≈ 2310 µM) | 250 (≈ 578 µM) | > 1000 | > 1000 |
| O=C1CSC(c2ccc(Cl)cc2)N1c1nc2ccc(OC(F)(F)F)cc2s1 (racemic) | 500 (≈ 1160 µM) | 250 (≈ 580 µM) | 500 (≈ 1160 µM) | 250 (≈ 580 µM) | 250 (≈ 580 µM) | 200 (≈ 464 µM) | 250 (≈ 580 µM) | 120 (≈ 279 µM) | 250 (≈ 580 µM) | 120 (≈ 279 µM) | 250 (≈ 580 µM) | 120 (≈ 279 µM) | 750 (≈ 1740 µM) | 250 (≈ 580 µM) | 500 (≈ 1160 µM) | 250 (≈ 580 µM) |
| O=C1CSC(c2ccc([N+](=O)[O-])cc2)N1c1nc2ccc(OC(F)(F)F)cc2s1 (racemic) | 500 (≈ 1130 µM) | 250 (≈ 566 µM) | 500 (≈ 1130 µM) | 250 (≈ 566 µM) | 250 (≈ 566 µM) | 120 (≈ 272 µM) | 250 (≈ 566 µM) | 120 (≈ 272 µM) | 500 (≈ 1130 µM) | 250 (≈ 566 µM) | 250 (≈ 566 µM) | 120 (≈ 272 µM) | 1000 (≈ 2270 µM) | 500 (≈ 1130 µM) | 500 (≈ 1130 µM) | 250 (≈ 566 µM) |
| O=C1CSC(c2cccc(Cl)c2Cl)N1c1nc2ccc(OC(F)(F)F)cc2s1 (racemic) | 500 (≈ 1070 µM) | 250 (≈ 537 µM) | 250 (≈ 537 µM) | 100 (≈ 215 µM) | 120 (≈ 258 µM) | 120 (≈ 258 µM) | 250 (≈ 537 µM) | 150 (≈ 322 µM) | 250 (≈ 537 µM) | 120 (≈ 258 µM) | 250 (≈ 537 µM) | 150 (≈ 322 µM) | 1000 (≈ 2150 µM) | 500 (≈ 1070 µM) | 250 (≈ 537 µM) | 100 (≈ 215 µM) |
| O=C1CSC(c2c(Cl)cccc2Cl)N1c1nc2ccc(OC(F)(F)F)cc2s1 (racemic) | 500 (≈ 1070 µM) | 250 (≈ 537 µM) | 500 (≈ 1070 µM) | 250 (≈ 537 µM) | 250 (≈ 537 µM) | 120 (≈ 258 µM) | 250 (≈ 537 µM) | 120 (≈ 258 µM) | 500 (≈ 1070 µM) | 250 (≈ 537 µM) | 250 (≈ 537 µM) | 120 (≈ 258 µM) | 500 (≈ 1070 µM) | 250 (≈ 537 µM) | 500 (≈ 1070 µM) | 250 (≈ 537 µM) |
| O=C1CSC(c2ccc(Cl)cc2Cl)N1c1nc2ccc(OC(F)(F)F)cc2s1 (racemic) | 500 (≈ 1070 µM) | 250 (≈ 537 µM) | 500 (≈ 1070 µM) | 150 (≈ 322 µM) | 1000 (≈ 2150 µM) | 250 (≈ 537 µM) | 250 (≈ 537 µM) | 120 (≈ 258 µM) | 500 (≈ 1070 µM) | 250 (≈ 537 µM) | 250 (≈ 537 µM) | 120 (≈ 258 µM) | 1000 (≈ 2150 µM) | 500 (≈ 1070 µM) | 500 (≈ 1070 µM) | 150 (≈ 322 µM) |
